Measured values published in ChEMBL document CHEMBL1201862, “PubChem BioAssay data set” (2004).
The source made the active and inactive calls.

Assays:
[1] = test system: Jurkat; experiment: antigen receptor-induced NF-kB inhibitors, dose response, Jurkat, luciferase reporter, luminescence, B- and T-cell (AID 489004); assay type: functional, cell-based; conditions: Homo sapiens;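 also: NF-kB luciferase reporter Jurkat cells stimulated with PMA plus ionomycin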
[2] = cytotoxicity in HEK-293T NF-kB-Luc cells, dose response, cytotoxicity control for B/T-cell NF-kB inhibitor project, cell-based, uHTS hits (AID 489019); assay type: functional;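 also: IC50 reflects cytotoxicity as loss of cell viability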
[3] = test system: HeLa; experiment: HeLa cell cytotoxicity, dose response, cytotoxicity control, 24 h, cherry-picked samples (AID 504726); assay type: functional, cell-based; conditions: Homo sapiens;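 also: potency for cytotoxicity as loss of luminescence signal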
[4] = target: ORF 73 (Human herpesvirus 8, UniProt O40947); experiment: inhibitors of C-LANA binding to LBS DNA, dose response, biochemical, fluorescence polarization, cherry-picked samples (AID 504725); set-up: species or system Human gammaherpesvirus 8;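 also: fluorescence polarization of a labeled DNA duplex reporting LANA DNA binding; potency is for inhibitors that block LANA binding to the DNA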
[5] = target: Keap1/Nrf2 (Homo sapiens, UniProt Q14145); experiment: Keap1-Nrf2 protein-protein interaction inhibitors, dose response, biochemical, fluorescence polarization, cherry-picked samples (AID 588683)
[6] = HeLa cell cytotoxicity, dose response, cytotoxicity control for MgcRacGAP inhibitor project (AID 624300); assay type: functional
[7] = target: T1, Rac GTPase-activating protein 1 (Homo sapiens, UniProt Q9H0H5); experiment: MgcRacGAP GTPase-activating activity inhibitors, confirmation, biochemical, ADP Hunter fluorescence, primary and confirmatory (AID 624330); assay type: functional
T1 sequence (Q9H0H5 whole entry): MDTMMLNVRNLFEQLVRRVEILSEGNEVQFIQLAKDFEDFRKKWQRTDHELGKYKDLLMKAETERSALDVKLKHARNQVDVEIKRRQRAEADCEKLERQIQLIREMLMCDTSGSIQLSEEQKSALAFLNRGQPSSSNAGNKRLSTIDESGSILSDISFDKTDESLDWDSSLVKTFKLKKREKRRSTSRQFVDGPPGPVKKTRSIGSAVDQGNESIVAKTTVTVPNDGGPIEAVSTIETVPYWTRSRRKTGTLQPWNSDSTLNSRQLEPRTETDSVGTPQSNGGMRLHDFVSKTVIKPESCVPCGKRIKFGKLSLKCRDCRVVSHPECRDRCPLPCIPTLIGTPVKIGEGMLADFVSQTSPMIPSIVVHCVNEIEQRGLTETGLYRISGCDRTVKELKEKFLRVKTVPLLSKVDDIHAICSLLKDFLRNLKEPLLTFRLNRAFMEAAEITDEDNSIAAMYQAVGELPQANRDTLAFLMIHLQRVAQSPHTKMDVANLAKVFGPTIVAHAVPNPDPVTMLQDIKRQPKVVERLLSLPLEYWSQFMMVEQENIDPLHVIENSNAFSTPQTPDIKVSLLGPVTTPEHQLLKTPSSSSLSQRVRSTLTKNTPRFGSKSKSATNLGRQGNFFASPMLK

[8] = ARNT/TACC3 interaction disruptors, potency, confirmation, biochemical, AlphaScreen, cherry-picked samples (AID 651703); assay type: functional, Homo sapiens;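 also: His-tagged ARNT PAS-B domain paired with GST-TACC3 E629A dimer coactivator fragment; potency of inhibitors that break up the complex and lower AlphaScreen signal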
[9] = target: SWI/SNF-related matrix-associated actin-dependent regulator of chromatin subfamily A member 2 (Homo sapiens, UniProt P51531); experiment: Luminescence-based cell-based high throughput dose response assay to identify activators of the function of SWI/SNF related, matrix associated, actin dependent regulator of chromatin, subfamily a, member 2 (SMARCA2, BRM).; assay type: functional
[10] = Counterscreen for activators of the function of SWI/SNF related, matrix associated, actin dependent regulator of chromatin, subfamily a, member 2 (SMARCA2, BRM): Luminescence-based cell-based high throughput dose response assay to identify non-selective compounds using the VP16 reporter assay.; assay type: functional
[11] = test system: HEK293; experiment: cells; conditions: Homo sapiens
[12] = test system: HEK293; experiment: cells; conditions: Homo sapiens; remark: listed apart in the source
[13] = target: Dual specificity protein phosphatase 3 (Homo sapiens, UniProt P51452); experiment: SAR VHR1 Fluorescent Assay for In Vitro dose response studies Set 3. [Related pubchem assays (depositor defined):AID1654, AID1661, AID1878]; assay type: functional
[14] = target: T2, Tyrosine-protein phosphatase non-receptor type 7 (Homo sapiens, UniProt P35236); experiment: redox-dependent HePTP inhibition, mechanism study, biochemical, fluorescence (AID 2068); assay type: functional
T2 sequence (P35236 whole entry): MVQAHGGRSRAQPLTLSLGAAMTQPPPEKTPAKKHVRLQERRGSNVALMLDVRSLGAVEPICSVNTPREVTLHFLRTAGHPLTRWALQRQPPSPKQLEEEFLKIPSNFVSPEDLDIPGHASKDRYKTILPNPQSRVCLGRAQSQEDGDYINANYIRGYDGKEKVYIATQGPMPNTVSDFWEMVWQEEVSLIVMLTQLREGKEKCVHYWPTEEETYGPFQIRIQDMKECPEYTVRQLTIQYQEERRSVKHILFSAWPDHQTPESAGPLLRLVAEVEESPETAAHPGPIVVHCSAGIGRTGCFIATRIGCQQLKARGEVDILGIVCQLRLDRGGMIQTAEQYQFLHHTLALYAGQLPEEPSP

[15] = target: Dual specificity protein phosphatase 6 (Rattus norvegicus, UniProt Q64346); assay type: functional;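 also: confirmatory in vitro dose-response testing of MKP-3 inhibition; recombinant His-tagged MKP-3 made in E. coli BL21 with OMFP substrate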
[16] = target: Phospholipase A2 (Homo sapiens, UniProt P04054); experiment: PLA2 enzyme inhibitors, dose response, counter-screen for ATG4B inhibitor project, biochemical, set 2 (AID 588586); assay type: functional
[17] = target: T3, Cysteine protease ATG4B (Homo sapiens, UniProt Q9Y4P1); experiment: ATG4B protease inhibitors, dose response, biochemical, fluorescence, set 2 (AID 588584); assay type: functional
T3 sequence (Q9Y4P1 whole entry): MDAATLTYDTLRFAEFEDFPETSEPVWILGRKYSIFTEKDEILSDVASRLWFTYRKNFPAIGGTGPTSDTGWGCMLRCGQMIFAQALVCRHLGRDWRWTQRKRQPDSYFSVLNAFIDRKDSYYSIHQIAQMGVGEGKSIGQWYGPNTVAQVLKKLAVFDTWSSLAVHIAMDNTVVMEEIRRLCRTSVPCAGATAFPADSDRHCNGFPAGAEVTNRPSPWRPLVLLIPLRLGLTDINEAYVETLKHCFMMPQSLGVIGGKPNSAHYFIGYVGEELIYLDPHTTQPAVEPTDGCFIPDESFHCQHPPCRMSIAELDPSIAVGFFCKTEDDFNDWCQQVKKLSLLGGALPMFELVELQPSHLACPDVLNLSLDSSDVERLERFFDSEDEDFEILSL

[18] = target: T4, Corticotropin-releasing factor receptor 2/Corticotropin-releasing factor-binding protein (Homo sapiens, UniProt P24387+Q13324); experiment: Dose Response confirmation of uHTS hits for small molecule antagonists of the CRF-binding protein and CRF-R2 receptor complex.; assay type: functional; conditions: read-out: IC50_Mean
T4 sequence (Q13324 whole entry): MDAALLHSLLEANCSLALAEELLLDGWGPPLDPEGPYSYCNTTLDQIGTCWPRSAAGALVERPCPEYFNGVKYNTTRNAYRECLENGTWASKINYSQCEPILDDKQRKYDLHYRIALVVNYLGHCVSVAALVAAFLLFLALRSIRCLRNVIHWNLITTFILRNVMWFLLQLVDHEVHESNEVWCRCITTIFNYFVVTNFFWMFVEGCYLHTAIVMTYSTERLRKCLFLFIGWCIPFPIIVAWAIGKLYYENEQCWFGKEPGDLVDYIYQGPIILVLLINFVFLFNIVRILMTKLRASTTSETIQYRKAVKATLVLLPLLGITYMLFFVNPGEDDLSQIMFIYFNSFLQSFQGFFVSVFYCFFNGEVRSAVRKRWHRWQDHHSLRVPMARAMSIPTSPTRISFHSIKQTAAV
T4 sequence (P24387 whole entry): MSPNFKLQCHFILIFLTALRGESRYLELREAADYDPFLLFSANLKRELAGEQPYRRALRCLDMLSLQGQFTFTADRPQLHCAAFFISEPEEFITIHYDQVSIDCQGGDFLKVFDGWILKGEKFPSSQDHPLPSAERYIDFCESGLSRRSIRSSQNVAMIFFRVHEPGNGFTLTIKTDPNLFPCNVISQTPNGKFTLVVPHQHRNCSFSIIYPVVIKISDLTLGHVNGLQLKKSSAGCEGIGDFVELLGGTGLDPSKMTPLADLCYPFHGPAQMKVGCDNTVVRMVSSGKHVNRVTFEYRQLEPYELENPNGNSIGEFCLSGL

[19] = target: T4, Corticotropin-releasing factor receptor 2/Corticotropin-releasing factor-binding protein; experiment: activators of CRF receptor 2 with binding protein – uHTS hits, confirmation (AID 602473); assay type: functional; conditions: read-out: EC50_Mean
[20] = target: Cytochrome P450 2D6 (Homo sapiens, UniProt P10635);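 also: CYP2D6 member of a cytochrome P450 panel assay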
[21] = target: Cytochrome P450 3A4 (Homo sapiens, UniProt P08684);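 also: CYP3A4 tested as one member of a cytochrome P450 panel screen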
[22] = Luminescence Cell-Based/Microorganism Confirmation at Dose of Inhibitors of Trypanosoma cruzi Infection. [Related pubchem assays: 1885, 1968 ]; assay type: functional
[23] = Luminescence Cell-Based Secondary HTS screen to identify cytotoxic compounds of NIH3T3 cells. [Related pubchem assays: 1885, 1968 ]; assay type: functional
[24] = inhibitors of Trypanosoma cruzi host-cell infection, confirmation, beta-gal luminescence, NIH3T3 host cells (AID 2630); assay type: functional, cell-based; conditions: Mus musculus
[25] = test system: HEK293; experiment: NOD1 signaling inhibitors, primary screen, cell-based, luminescence, uHTS (AID 1578); assay type: functional; conditions: Homo sapiens
[26] = insulin promoter down-regulators in MIN6 cells, imaging, high-content screening, mouse beta cells (AID 1628); assay type: functional
[27] = test system: HEK293; experiment: cells; assay type: functional, cell-based; conditions: Homo sapiens
[28] = cytotoxicity in MIN6 insulinoma cells, dose response, cytotoxicity control, cell-based, mouse insulinoma (AID 2122); assay type: functional;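 also: confirmatory high-throughput counterscreen run to flag cytotoxic compounds; mouse MIN-6 beta cells carrying an insulin promoter eGFP reporter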
[29] = test system: HEK293; experiment: cells; assay type: functional, cell-based; conditions: Homo sapiens; remark: listed apart in the source
[30] = test system: HEK293; experiment: NOD2 signaling inhibitors in MDP-stimulated cells, cell-based, uHTS, luminescence (AID 2001); assay type: functional; conditions: Homo sapiens
[31] = inhibitors of intracellular T. cruzi replication, confirmation, NIH3T3 host cells, beta-gal luminescence (AID 2044); assay type: functional, cell-based;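 also: intracellular parasites grown in NIH/3T3 mouse fibroblasts as host cells; luminescent beta-galactosidase reporter signal from transgenic T. cruzi replicating inside host cells; inhibitors lower the luminescence signal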
[32] = cytotoxicity toward NIH3T3 fibroblasts, dose response, counter-screen, cell-based, ATP luminescence, mouse fibroblasts (AID 2010); assay type: functional;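 also: cells exposed to compound for about 90 hours before reading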
[33] = test system: INS1; experiment: beta cell apoptosis inhibitors, cytokine rescue, dose response, luminescence, retest (AID 449756); assay type: functional, cell-based; conditions: Rattus norvegicus;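 also: cell death triggered by IL-1 beta plus TNF-alpha plus IFN-gamma mixture; protective hits raise ATP signal compared with cytokine alone wells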
[34] = Shn3 3'UTR reporter inhibitors, dose response, cell-based, Clone20 osteoblasts, firefly luciferase, cherry-picked (AID 624132); assay type: functional;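 also: firefly luciferase luminescence from reporter carrying the Shn3 3'UTR in osteoblasts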
[35] = HepG2 cell cytotoxicity, dose response, cytotoxicity control for Shn3 inhibitor project, CellTiter-Glo, cherry-picked (AID 624134); assay type: functional, cell-based
[36] = control 3'UTR Renilla luciferase suppression, dose response, counter-screen for Shn3 inhibitor project, cell-based, Clone20-Shn3RL, cherry-picked (AID 624133); assay type: functional

Sequence of Keap1/Nrf2 (Q16236 whole entry): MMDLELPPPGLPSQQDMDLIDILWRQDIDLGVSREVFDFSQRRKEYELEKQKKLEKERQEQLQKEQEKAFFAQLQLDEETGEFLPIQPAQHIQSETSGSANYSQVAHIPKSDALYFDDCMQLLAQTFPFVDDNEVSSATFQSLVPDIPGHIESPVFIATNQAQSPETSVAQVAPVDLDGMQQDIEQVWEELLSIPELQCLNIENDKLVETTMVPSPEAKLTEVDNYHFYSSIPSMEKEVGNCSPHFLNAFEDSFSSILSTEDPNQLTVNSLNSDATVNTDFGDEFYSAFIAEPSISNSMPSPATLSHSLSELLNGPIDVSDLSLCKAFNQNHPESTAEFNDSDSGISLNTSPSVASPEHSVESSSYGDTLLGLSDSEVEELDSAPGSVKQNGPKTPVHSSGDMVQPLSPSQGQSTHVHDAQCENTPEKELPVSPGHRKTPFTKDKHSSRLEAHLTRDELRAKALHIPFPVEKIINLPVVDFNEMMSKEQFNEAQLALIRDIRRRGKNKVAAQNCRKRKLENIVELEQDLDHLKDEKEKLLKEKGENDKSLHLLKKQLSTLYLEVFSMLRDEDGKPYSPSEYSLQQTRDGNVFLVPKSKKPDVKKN
Sequence of Keap1/Nrf2 (Q14145 whole entry): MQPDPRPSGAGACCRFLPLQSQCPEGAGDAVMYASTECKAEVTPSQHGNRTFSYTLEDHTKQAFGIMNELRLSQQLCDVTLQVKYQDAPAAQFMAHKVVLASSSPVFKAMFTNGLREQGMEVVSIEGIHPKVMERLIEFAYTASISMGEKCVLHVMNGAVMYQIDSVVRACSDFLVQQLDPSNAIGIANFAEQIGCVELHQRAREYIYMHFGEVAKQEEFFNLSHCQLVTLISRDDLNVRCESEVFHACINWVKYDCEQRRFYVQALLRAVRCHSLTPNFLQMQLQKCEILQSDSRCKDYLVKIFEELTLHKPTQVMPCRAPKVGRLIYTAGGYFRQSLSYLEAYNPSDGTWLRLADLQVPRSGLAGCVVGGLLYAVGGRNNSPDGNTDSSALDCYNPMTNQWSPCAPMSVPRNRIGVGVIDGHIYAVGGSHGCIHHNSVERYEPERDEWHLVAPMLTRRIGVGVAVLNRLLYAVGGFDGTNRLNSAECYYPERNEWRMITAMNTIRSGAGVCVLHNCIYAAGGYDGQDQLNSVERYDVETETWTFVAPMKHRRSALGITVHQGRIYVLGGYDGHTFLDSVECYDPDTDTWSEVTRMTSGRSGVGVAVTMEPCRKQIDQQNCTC
Sequence of Dual specificity protein phosphatase 6 (Q64346 whole entry): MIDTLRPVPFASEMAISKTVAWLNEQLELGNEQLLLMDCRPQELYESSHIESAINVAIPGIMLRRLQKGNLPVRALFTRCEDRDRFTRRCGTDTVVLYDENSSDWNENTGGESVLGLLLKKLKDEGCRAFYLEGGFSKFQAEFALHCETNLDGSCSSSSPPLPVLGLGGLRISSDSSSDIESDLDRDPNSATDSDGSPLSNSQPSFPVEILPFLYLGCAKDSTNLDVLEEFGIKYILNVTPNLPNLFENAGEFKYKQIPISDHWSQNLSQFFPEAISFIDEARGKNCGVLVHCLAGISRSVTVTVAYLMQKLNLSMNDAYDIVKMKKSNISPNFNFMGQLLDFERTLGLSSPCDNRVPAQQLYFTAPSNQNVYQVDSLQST
Sequence of Phospholipase A2 (P04054 whole entry): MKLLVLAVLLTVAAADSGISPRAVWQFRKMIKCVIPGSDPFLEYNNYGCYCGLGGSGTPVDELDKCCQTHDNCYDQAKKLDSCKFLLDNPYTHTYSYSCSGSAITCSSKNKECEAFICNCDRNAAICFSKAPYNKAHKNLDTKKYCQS
Sequence of Cytochrome P450 3A4 (P08684 whole entry): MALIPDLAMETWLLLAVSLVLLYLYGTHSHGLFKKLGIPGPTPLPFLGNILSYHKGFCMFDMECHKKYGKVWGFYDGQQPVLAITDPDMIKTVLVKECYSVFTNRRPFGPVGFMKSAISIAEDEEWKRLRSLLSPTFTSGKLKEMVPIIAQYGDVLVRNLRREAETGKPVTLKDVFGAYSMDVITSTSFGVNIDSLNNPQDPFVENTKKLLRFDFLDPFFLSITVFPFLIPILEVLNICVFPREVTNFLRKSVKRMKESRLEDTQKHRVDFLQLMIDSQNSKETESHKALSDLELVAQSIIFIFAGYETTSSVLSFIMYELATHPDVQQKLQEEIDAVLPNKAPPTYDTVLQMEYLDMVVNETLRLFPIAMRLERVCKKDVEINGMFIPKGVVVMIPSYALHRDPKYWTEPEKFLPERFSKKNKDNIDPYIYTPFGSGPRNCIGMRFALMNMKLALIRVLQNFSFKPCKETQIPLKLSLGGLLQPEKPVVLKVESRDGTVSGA
Sequence of ORF 73 (O40947 whole entry): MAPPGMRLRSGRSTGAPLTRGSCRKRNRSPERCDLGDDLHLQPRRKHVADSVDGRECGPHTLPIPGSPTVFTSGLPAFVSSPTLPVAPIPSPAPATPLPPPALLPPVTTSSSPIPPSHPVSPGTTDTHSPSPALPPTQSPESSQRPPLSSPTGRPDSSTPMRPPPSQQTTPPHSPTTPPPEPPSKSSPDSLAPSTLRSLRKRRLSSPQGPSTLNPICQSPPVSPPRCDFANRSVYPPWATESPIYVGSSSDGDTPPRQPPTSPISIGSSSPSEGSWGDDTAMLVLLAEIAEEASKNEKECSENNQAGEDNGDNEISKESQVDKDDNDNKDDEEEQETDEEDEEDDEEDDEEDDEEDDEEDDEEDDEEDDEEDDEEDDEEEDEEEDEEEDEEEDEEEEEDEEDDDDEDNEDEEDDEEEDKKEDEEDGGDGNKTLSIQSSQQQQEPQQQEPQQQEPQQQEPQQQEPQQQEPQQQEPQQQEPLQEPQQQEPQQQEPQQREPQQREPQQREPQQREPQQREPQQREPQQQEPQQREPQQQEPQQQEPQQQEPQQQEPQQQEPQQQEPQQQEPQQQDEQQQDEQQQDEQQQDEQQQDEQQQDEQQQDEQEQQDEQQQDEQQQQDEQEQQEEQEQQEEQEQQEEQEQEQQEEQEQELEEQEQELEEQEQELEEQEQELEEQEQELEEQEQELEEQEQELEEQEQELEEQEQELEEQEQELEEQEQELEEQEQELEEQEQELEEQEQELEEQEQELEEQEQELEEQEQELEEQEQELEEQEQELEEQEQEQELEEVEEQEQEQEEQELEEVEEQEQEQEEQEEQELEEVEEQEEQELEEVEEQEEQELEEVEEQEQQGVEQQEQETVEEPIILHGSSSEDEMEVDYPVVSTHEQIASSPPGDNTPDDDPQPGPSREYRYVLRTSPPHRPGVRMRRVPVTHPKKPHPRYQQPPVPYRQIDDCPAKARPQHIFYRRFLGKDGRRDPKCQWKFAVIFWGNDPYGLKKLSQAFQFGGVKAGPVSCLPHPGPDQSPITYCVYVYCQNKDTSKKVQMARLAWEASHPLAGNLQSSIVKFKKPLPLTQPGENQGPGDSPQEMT
Sequence of Dual specificity protein phosphatase 3 (P51452 whole entry): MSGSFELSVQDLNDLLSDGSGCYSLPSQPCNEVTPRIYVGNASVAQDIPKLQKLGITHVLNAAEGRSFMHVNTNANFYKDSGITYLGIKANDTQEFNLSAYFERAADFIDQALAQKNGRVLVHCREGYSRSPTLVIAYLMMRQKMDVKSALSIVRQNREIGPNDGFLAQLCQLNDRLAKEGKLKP
Sequence of Cytochrome P450 2D6 (P10635 whole entry): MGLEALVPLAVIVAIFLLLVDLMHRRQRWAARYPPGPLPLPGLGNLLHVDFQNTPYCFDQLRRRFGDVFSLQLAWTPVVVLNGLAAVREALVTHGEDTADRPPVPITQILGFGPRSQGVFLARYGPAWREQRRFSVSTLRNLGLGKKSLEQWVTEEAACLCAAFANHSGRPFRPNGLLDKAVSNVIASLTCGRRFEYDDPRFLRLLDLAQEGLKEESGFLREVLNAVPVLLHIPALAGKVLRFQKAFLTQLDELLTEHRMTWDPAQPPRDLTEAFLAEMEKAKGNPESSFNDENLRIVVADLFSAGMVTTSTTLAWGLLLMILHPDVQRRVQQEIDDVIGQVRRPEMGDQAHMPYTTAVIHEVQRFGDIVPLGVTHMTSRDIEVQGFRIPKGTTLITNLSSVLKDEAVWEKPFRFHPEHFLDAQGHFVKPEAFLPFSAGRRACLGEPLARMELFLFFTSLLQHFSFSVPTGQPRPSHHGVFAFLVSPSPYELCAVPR

With CCCCCNC(=O)c1ccc2c(=O)n(CC3CCCO3)c(=O)[nH]c2c1 (stereo unspecified) the IC50 [1] was > 80 µM (inactive) and the IC50 [2] was > 80 µM (inactive).

In the case of CN(C)CCNc1ccc2ncn3c4ccc(O)cc4c(=O)c1c23, the AC50 [3] is reported as 11.5 µM (active), the AC50 [4] is reported as 6.38 µM (active) and the AC50 [5] is reported as 3.79 µM (active). For the same compound, the CC50 [6] was 49.2 µM (active), the IC50 [7] was 46.8 µM (active) and the AC50 [8] was 89 µM (active). The EC50 [9] was 11.5 µM (inactive), the EC50 [10] was > 91.1 µM (inactive) and the EC50 [11] was > 6.62 µM (active). The EC50 [12] was > 59.6 µM (inactive).

With COc1cccc2sc(NC(=O)c3ccc(C(=O)c4ccccc4)cc3)nc12 the IC50 [13] was > 66 µM (inactive).

With CCN(CC)C(=O)c1cn(CCOc2ccccc2)c2ccccc12 the IC50 [14] was 1.38 µM (active) and the IC50 [15] was > 100 µM (inactive).

With CCOc1ccc(C(=O)Nc2cnn(Cc3ccc(Cl)c(Cl)c3)c2)cc1 the IC50 [16] was 79.1 µM (inactive), the IC50 [17] was 68.1 µM (inactive) and the IC50 [18] was > 47.1 µM (inactive). The EC50 [19] was > 53 µM (inactive), the AC50 [20] was 15.8 µM (inconclusive) and the AC50 [21] was 22.4 µM (inconclusive).

With COc1ccccc1/C=C/C(=O)OCCCN(C)C the EC50 [22] was 2.52 µM (active), the EC50 [23] was > 195 µM (not active) and the EC50 [24] was 2.52 µM (active).

For COc1ccc(CC2(CO)CCN(CC3=Cc4cc(Cl)ccc4OC3)CC2)cc1, the EC50 [25] was 5.44 µM (active), the IC50 [26] was 1.79 µM (active) and the IC50 [27] was 3.77 µM (active). The IC50 [28] was 1.28 µM (active), the IC50 [29] was 8.64 µM (active) and the IC50 [30] was 4.31 µM (active). The EC50 [31] was 1.68 µM (active), the EC50 [32] was > 60 µM (inconclusive) and the AC50 [33] was 3.28 µM (active). The AC50 [34] was 1.33 µM (active), the AC50 [35] was 7.73 µM (active) and the AC50 [36] was 7.74 µM (active).
